These results are taken from US20120148677A1, “CONTROLLED RELEASE PARTICLES CONTAINING ACID FIBROBLAST GROWTH FACTOR” (Taipei Veterans General Hospital, priority 2010, published 2012).

The subject of one data set is PC-12 cells. Description: 6-OHDA neurotoxicity in PC-12 cells, MTT cell viability assay. The data set is classed as cell-based. The protocol: The neurotoxicity was test by PC-12 cells which were rat pheochromocytoma cell line. The cells were supplied by the Bioresource Collection and Research Center, Food Industry Research and Development Institute, Hsinchu, Taiwan, and maintained in RPMI 1640 supplemented with 10% HBS, 5% FBS, 1% penicillin/streptomycin (Gibco) at 37° C. in a humidified atmosphere containing 5% CO2 and the culture medium was changed every 2 days.
6-hydroxydopamin (6-OHDA) is a neurotoxin, which leads to apoptosis of catecholaminergic cells. This pharmacological mechanism can be used to test neuron protecting efficiency of aimed drugs. The cells were seeded in 96 well plates at a density of 4×10^4 cells/well, which were pre-coated with collagen. Following 24 hrs of starvation, the medium was changed into 5% serum. The experimental groups were given different treatments and added with 6-OHDA (sigma) until reaching the concentration of 100 uM. The medium without 6-OHDA works as control. The relative number of viable cells was monitored by MTT assay.
MTT (3-(4,5-Dimethylthiazol-2-yl)-2,5-diphenyltetrazolium bromide) was a tetrazolium salt that can be reduced to purple-colored formazan by normal cell. The stock solution of MTT (5 mg/ml) was added into each well to make the medium of 0.5 mg/ml MTT and cells were incubated for 4 h. The supernatant was removed to obtain the MTT metabolic product, formazan, which was then dissolved in 120 ul DMSO (dimethylsulfoxide, sigma) and placed on a shaking table for 5 min until thoroughly dissolved. 100 ul of dissolved-formazan from each well was transferred into another plate to measure the absorbance with 560 nm at background 670 nm.
The dosage used was 100 uM, which caused about 40% apoptosis. […] The empty particles (without aFGF) and the particles entrapping an aFGF were soaked in culture medium for 2 days at 4° C. The supernatant was then collected and diluted at different concentrations for treatment of the 6-OHDA-damaged PC-12 cells.
For orientation: Tetrazolium dyes change colour on reduction, which living cells bring about.

In the next data set the target is T1, trypsin (Bos taurus, UniProt P00760).
T1 construct: purchased Sigma T1426
T1 sequence (P00760 24-246): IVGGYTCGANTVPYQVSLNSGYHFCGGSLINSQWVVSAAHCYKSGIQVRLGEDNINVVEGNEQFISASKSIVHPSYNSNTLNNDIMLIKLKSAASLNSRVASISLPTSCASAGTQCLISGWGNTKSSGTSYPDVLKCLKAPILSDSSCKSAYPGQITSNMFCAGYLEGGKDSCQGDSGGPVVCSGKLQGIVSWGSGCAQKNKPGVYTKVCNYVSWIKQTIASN
Description: Proteolytic sensitivity to trypsin digestion, Western blot. It counts as in vitro ADME. To be noted: after 5 min of digestion, aFGF:trypsin 1:400, PBS, 37° C. The protocol:
In order to test how well of the particles can protect aFGF from an enzyme digestion, we mixed aFGF or the particles entrapping aFGF with a protein enzyme, trypsin. The aFGF and trypsin (Sigma, T1426) was mixed with the ratio of 1:400 in PBS bathed at 37° C. Ten microliters of product was taken out at various time intervals to mix with 10 ul of 2×SDS-sample buffer. The solution was then immediately being boiled for 5 mins to cease enzyme reaction.
As shown in the results, the binding of aFGF to heparin increased the stability to overcome the challenge in vivo. To simulate physiological environment, the experiment was held at 37° C. The intact aFGF and aFGF in the particles of the invention were digested by Trypsin respectively, and aFGF antibody was used to detect the remaining aFGF. With the increase in time of enzyme digestion, the amount of aFGF decreases.
In general terms: A western blot detects proteins with antibodies after separation by electrophoresis.

For the molecule `NCCc1cc(O)c(O)cc1O` [6-OHDA, 6-hydroxydopamin, reference compound], in the data set with PC-12 cells (100 uM 6-OHDA, PC-12 cells), the apoptosis entry was “about 40%”. Moreover, in the data set on PC-12 cells (Rattus norvegicus, PC-12, read-out: ED50 (neurotoxicity)), the EC50 was roughly 125 µM.
Turning to acid fibroblast growth factor [aFGF], the “remaining aFGF band after trypsin digestion” value with trypsin is “almost disappeared”. Also, the survival rate entry in the data set with PC-12 cells (10 pg/ml aFGF, 100 uM 6-OHDA, PC-12 cells) is “more than 72.63%”; in the data set on PC-12 cells (10 ng/ml aFGF, 100 uM 6-OHDA, PC-12 cells) it was 88.41%. Also, in the data set on PC-12 cells (6-OHDA-treated PC-12 cells, FIG. 5), the “effect on PC-12 death” value was “significantly blocks PC-12 death”.
